Measured values from patent US10716790B2, “Method for treating cancer by combined use” (priority 2015, dated 2020).

Tests used:
[1] = test system: human acute myeloid leukemia cell line MOLM-13 cells having a FLT3-ITD mutation and wild-type TP53; test: In vivo effect of combined use on subcutaneously transplanted MOLM-13 tumors in NOD-SCID mice; conditions: oral; for TGI (%): 17 days after tumor inoculation
Method: (§1) Human acute myeloid leukemia cell line MOLM-13 cells having a FLT3-ITD mutation and wild-type TP53 were suspended to 5×10^7 cells/mL using phosphate-buffered saline. 0.1 mL of the prepared cell suspension was subcutaneously transplanted to each NOD-SCID mouse (male, 5 to 7 weeks old). On 6 days after the tumor inoculation, after confirmation that the average tumor volume exceeded 100 mm^3, the mice were randomized (N=6/group) on the basis of their tumor volume values. […] The administration was performed once a day for 5 consecutive days (6 to 10 days after the tumor inoculation) from the date of randomization (6 days after the tumor inoculation), and after a 2-day drug holiday, performed once a day for 4 consecutive days (13 to 16 days after the tumor inoculation). The length (mm) and width (mm) of tumor were measured over time using an electronic digital caliper. Tumor growth inhibition % (TGI %) on the date of assessment (17 days after the tumor inoculation) calculated according to calculation formula (4) shown below was used in evaluation. Also, the body weights were measured over time using an automatic balance for small animals, and body weight change % was calculated according to calculation formula (5) shown below to assess the influence of drug administration on the body weights. In addition, the results of the last body weight measurement were used in dose calculation. TGI (%)=(1−A/B)×100 (4)
A: Average tumor volume of the compound-administered group on the date of assessment (*)
B: Average tumor volume of the untreated control group on the date of assessment (*)
(§2) *: The tumor volume was calculated according to ½×[Major axis of tumor]×[Minor axis of tumor]×[Minor axis of tumor]. Body weight change (%)=Average body weight change % of the individuals Body weight change % of each individual=[…] (5)

[2] = Body weight change of MOLM-13 tumor-bearing NOD-SCID mice under drug administration; format: in vivo, mouse; conditions: oral
Method: as §1, §2
BWn: Body weight on day n
BWs: Body weight on the start day of administration

[3] = DS-3032b 25 mg/kg, day 6 after tumor inoculation
[4] = DS-3032b 25 mg/kg, day 8 after tumor inoculation
[5] = DS-3032b 25 mg/kg, day 10 after tumor inoculation
[6] = DS-3032b 25 mg/kg, day 13 after tumor inoculation
[7] = DS-3032b 25 mg/kg, day 15 after tumor inoculation
[8] = DS-3032b 25 mg/kg, day 17 after tumor inoculation
[9] = DS-3032b 50 mg/kg, day 6 after tumor inoculation
[10] = DS-3032b 50 mg/kg, day 8 after tumor inoculation
[11] = DS-3032b 50 mg/kg, day 10 after tumor inoculation
[12] = DS-3032b 50 mg/kg, day 13 after tumor inoculation
[13] = DS-3032b 50 mg/kg, day 15 after tumor inoculation
[14] = DS-3032b 50 mg/kg, day 17 after tumor inoculation

CC1(C)CCC2(CC1)N[C@@H](C(=O)N[C@@H]1CC[C@@H](C(N)=O)OC1)[C@H](c1ccnc(Cl)c1F)[C@]21C(=O)Nc2cc(Cl)ccc21.Cc1ccc(S(=O)(=O)O)cc1 [Compound A, (3′R,4′S,5′R)—N-[(3R,6S)-6-carbamoyltetrahydro-2H-pyran-3-yl]-6″-chloro-4′-(2-chloro-3-fluoropyridin-4-yl)-4,4-dimethyl-2″-oxo-1″,2″-dihydrodispiro[cyclohexane-1,2′-pyrrolidine-3′,3″-indole]-5′-carboxamide tosylate]
TGI (%) ([1]; Compound A 25 mg/kg): 38%
TGI (%) ([1]; Compound A 50 mg/kg): 82%
Estimated tumor volume (mm^3), average [1, 3]: 169 mm^3
Estimated tumor volume (mm^3), average [1, 4]: 266 mm^3
Estimated tumor volume (mm^3), average [1, 5]: 425 mm^3
Estimated tumor volume (mm^3), average [1, 6]: 812 mm^3
Estimated tumor volume (mm^3), average [1, 7]: 983 mm^3
Estimated tumor volume (mm^3), average [1, 8]: 1661 mm^3
Estimated tumor volume (mm^3), average [1, 9]: 162 mm^3
Estimated tumor volume (mm^3), average [1, 10]: 195 mm^3
Estimated tumor volume (mm^3), average [1, 11]: 210 mm^3
Estimated tumor volume (mm^3), average [1, 12]: 325 mm^3
Estimated tumor volume (mm^3), average [1, 13]: 375 mm^3
Estimated tumor volume (mm^3), average [1, 14]: 467 mm^3
Body weight change (%), average [2, 3]: 0.0%
Body weight change (%), average [2, 4]: 2.1%
Body weight change (%), average [2, 5]: 3.1%
Body weight change (%), average [2, 6]: 6.4%
Body weight change (%), average [2, 7]: 8.0%
Body weight change (%), average [2, 8]: 10.6%
Body weight change (%), average [2, 9]: 0.0%
Body weight change (%), average [2, 10]: 1.5%
Body weight change (%), average [2, 11]: 2.7%
Body weight change (%), average [2, 12]: 5.5%
Body weight change (%), average [2, 13]: 6.8%
Body weight change (%), average [2, 14]: 5.8%

CC(C)(C)c1cc(NC(=O)Nc2ccc(-c3cn4c(n3)sc3cc(OCCN5CCOCC5)ccc34)cc2)no1 [Quizartinib, N-(5-tert-butyl-isoxazol-3-yl)-N′-{4-[7-(2-morpholin-4-yl-ethoxy)imidazo[2,1-b][1,3]benzothiazol-2-yl]phenyl}urea, reference compound]
Body weight change (%), average ([2]; Quizartinib 0.5 mg/kg, day 6 after tumor inoculation): 0.0%
Body weight change (%), average ([2]; Quizartinib 0.5 mg/kg, day 8 after tumor inoculation): 4.2%
Body weight change (%), average ([2]; Quizartinib 0.5 mg/kg, day 10 after tumor inoculation): 4.2%
Body weight change (%), average ([2]; Quizartinib 0.5 mg/kg, day 13 after tumor inoculation): 8.5%
Body weight change (%), average ([2]; Quizartinib 0.5 mg/kg, day 15 after tumor inoculation): 9.6%
Body weight change (%), average ([2]; Quizartinib 0.5 mg/kg, day 17 after tumor inoculation): 10.7%
Body weight change (%), average ([2]; Quizartinib 1 mg/kg, day 6 after tumor inoculation): 0.0%
Body weight change (%), average ([2]; Quizartinib 1 mg/kg, day 8 after tumor inoculation): 0.2%
Body weight change (%), average ([2]; Quizartinib 1 mg/kg, day 10 after tumor inoculation): 1.8%
Body weight change (%), average ([2]; Quizartinib 1 mg/kg, day 13 after tumor inoculation): 4.6%
Body weight change (%), average ([2]; Quizartinib 1 mg/kg, day 15 after tumor inoculation): 5.1%
Body weight change (%), average ([2]; Quizartinib 1 mg/kg, day 17 after tumor inoculation): 5.8%
